Where a name gives a salt, the structure may show the parent alone. Read-outs that look alike come from different tables or passages of the source.

Assay [1] addresses T1, hα3β4 AChRs ([3H]imipramine sites) (Homo sapiens, UniProt P30926+P32297). The settings on record: ref Arias et al., cited from earlier work.
In a further assay the target is hα3β4 AChRs (Homo sapiens, UniProt P30926+P32297). The format is cell-based.
The target in another assay is hα4β2 AChRs (Homo sapiens, UniProt P17787+P43681). It is filed as cell-based.
The target in the next assay is hα7 AChRs (Homo sapiens, UniProt P36544). The format is cell-based.
A further assay addresses rα9α10 AChRs (Rattus norvegicus, UniProt P43144+Q9JLB5). It is filed as cell-based.
The next assay addresses habenular mα3β4* AChRs (Mus musculus, UniProt Q8R493+Q8R4G9). Put plainly: Patch-clamp recordings of ACh-evoked currents from MHb. The format is cell-based.
Assay [2] has as its target T1, hα3β4 AChRs ([3H]imipramine sites). Put plainly: [3H]Imipramine competition binding to hα3β4 AChR-containing membranes.
Assay [3] concerns the target T2, hα4β2 AChRs ([3H]imipramine sites) (Homo sapiens, UniProt P17787+P43681). Put plainly: [3H]Imipramine competition binding to hα4β2 AChR-containing membranes.
In assay [4] the target is T2, hα4β2 AChRs ([3H]imipramine sites). The settings on record: read-out: Kd (dissociation constant), ref Arias et al., 2010b; cited from earlier work.
Setting [5] is: desensitized state, [3H]imipramine competition.

Consider `CNCCC(Oc1ccc(C(F)(F)F)cc1)c1ccccc1` (centres unmarked) [fluoxetine], for which the inhibition constant Ki in assay [1] (hα3β4 AChR, [3H]imipramine sites, 2010a) is 4.8 ± 0.5 µM.
Turning to `CN(C)CCCC1(c2ccc(F)cc2)OCc2cc(C#N)ccc21` (racemic) [(±)-citalopram, 1-[3-(dimethylamino)propyl]-1-(4-fluorophenyl)-1,3-dihydro-5-isobenzofurancarbonitrile], the IC50 on hα3β4 AChRs was 5.1 ± 1.3 µM; at hα4β2 AChRs, 19.1 ± 4.2 µM; against hα7 AChRs it was 18.8 ± 1.1 µM; on rα9α10 AChRs, 7.5 ± 0.9 µM; against habenular mα3β4* AChRs (IC50(0), ligand concentration to produce 50% inhibition at 0 mV, one-site blocking model, Eq. (1)), 92 µM; against habenular mα3β4* AChRs (IC50, inhibition of 100 μM ACh puff-evoked currents, MHb (VI) neurons), 7.6 ± 1 µM. Moreover, the “nH (Hill coefficient)” value on hα3β4 AChRs (inhibition of (±)-epibatidine-induced Ca2+ influx, HEK293-hα3β4 cells) was 1.00 ± 0.10; at hα4β2 AChRs (inhibition of (±)-epibatidine-induced Ca2+ influx, HEK293-hα4β2 cells), 1.24 ± 0.19; on hα7 AChRs (inhibition of (±)-epibatidine-induced Ca2+ influx, GH3-hα7 cells), 1.44 ± 0.22; on rα9α10 AChRs (inhibition of 10 μM ACh-evoked rα9α10 currents, Xenopus oocytes), 1.35 ± 0.10; in assay [2] (setting [5]), 0.74 ± 0.04; in [3] (setting [5]) it was 0.72 ± 0.03. Also, the “increase of the ACh EC50 value” on rα9α10 AChRs (8.0 μM (±)-citalopram, p = 0.0001) is recorded as 7.5 fold. Besides, the inhibition at 10 µM on rα9α10 AChRs (read-out: inhibition of ACh responses, 10 μM (±)-citalopram, 10 μM ACh, +40 mV) was found to be 43.3 ± 4.9%; at rα9α10 AChRs (read-out: inhibition of ACh responses, 10 μM (±)-citalopram, 10 μM ACh, −90 mV) it was 46 ± 4.7%. Besides, the Ki in [2] came to 1800 ± 100 nM; in assay [3] it was 4.1 ± 0.3 µM; in [3] (Ki (binding affinity), resting state, in the presence of 0.1 κ-bungarotoxin), 5.9 ± 0.4 µM.
Turning to `CN(C)CCCN1c2ccccc2CCc2ccccc21` [[^3H]imipramine, [^3H]Imipramine hydrochloride], the Kd in assay [1] (read-out: Kd (dissociation constant), hα3β4 AChRs, 2010c) was 410 nM; in assay [4], 830 nM.
With `CC(=O)OCC[N+](C)(C)C` [ACh, acetylcholine], the “nH of ACh” value is listed as 0.98 ± 0.2 on rα9α10 AChRs (No (±)-citalopram) and 1.11 ± 0.6 at rα9α10 AChRs (in the presence of 8.0 μM (±)-citalopram).

The record behind these values is paper PMC7221482 (Neurochemistry international, 2019).
